For one test, the target named is Nitric oxide synthase 1 (Rattus norvegicus, UniProt P29476). Nature of the test: Inhibition of rat nNOS.
Test [1] concerns the target T1, Nitric oxide synthase, inducible (Mus musculus, UniProt P29477).
T1 sequence (P29477 whole entry): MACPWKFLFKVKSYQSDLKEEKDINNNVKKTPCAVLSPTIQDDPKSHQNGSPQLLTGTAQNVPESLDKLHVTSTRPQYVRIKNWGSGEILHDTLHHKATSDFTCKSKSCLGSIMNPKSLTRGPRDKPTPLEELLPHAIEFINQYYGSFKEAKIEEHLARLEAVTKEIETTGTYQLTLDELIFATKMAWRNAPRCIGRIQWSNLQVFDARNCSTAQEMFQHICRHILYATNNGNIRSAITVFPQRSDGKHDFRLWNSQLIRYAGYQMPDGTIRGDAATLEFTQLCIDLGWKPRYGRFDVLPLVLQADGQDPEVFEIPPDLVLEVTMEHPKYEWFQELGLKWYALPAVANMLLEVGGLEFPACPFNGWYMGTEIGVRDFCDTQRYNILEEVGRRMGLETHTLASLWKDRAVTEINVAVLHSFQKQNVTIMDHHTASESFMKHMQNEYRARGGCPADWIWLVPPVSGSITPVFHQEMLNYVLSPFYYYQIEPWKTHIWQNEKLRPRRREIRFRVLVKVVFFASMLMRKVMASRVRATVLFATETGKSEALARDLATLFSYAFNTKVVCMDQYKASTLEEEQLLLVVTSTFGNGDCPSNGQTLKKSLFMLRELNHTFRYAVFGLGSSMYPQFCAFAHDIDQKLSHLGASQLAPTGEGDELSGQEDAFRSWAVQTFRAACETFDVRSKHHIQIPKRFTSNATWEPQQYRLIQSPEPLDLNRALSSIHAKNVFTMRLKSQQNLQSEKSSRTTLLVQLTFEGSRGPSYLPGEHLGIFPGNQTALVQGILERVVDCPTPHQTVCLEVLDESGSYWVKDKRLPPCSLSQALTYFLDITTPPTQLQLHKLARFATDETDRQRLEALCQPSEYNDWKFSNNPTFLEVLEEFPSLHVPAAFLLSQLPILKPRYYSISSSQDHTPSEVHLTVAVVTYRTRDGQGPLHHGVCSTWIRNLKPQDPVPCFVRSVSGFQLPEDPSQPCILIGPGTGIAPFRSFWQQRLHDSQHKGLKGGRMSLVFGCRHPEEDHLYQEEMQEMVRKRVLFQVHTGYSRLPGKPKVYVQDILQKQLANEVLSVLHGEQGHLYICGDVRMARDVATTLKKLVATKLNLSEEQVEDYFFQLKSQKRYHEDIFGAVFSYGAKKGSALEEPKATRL
Put plainly: Inhibition of murine macrophage iNOS.

The next test has as its target T2, Nitric oxide synthase 3 (Bos taurus, UniProt P29473).
T2 sequence (P29473 whole entry): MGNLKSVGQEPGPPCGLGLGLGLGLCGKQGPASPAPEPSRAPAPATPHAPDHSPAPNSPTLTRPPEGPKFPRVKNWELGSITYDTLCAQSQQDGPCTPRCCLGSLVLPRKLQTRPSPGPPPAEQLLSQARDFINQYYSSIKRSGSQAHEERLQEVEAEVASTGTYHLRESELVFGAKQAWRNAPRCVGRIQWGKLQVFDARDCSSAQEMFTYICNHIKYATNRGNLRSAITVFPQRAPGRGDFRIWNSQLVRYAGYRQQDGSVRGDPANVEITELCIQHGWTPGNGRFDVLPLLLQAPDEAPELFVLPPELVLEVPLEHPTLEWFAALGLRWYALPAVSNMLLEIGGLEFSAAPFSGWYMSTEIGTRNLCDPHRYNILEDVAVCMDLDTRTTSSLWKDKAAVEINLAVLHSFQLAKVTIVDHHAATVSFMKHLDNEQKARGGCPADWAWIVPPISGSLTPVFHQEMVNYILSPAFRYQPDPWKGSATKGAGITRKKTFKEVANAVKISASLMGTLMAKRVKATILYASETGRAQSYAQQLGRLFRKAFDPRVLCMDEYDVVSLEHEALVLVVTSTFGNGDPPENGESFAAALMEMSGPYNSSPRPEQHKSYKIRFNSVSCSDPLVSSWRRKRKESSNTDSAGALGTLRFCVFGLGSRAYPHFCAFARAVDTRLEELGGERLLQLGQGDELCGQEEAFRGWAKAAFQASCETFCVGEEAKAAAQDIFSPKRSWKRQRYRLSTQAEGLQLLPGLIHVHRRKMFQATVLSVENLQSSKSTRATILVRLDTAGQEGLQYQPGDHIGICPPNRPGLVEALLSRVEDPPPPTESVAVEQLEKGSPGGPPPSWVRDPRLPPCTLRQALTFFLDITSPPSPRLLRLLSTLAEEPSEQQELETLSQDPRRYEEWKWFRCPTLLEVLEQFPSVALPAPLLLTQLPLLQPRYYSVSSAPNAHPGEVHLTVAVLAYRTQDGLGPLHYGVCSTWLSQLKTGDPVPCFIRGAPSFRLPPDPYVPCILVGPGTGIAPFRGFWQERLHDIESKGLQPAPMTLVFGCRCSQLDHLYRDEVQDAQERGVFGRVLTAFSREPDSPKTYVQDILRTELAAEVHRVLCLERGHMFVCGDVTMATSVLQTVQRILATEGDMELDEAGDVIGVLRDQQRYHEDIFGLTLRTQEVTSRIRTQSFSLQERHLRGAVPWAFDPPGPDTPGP
Put plainly: Inhibition of bovine eNOS.

A short description of test [2]: Selectivity for rat nNOS over murine iNOS.
Test [3] is described as follows: Selectivity for rat nNOS over bovine eNOS.

Chain of Nitric oxide synthase 1 (P29476 whole entry): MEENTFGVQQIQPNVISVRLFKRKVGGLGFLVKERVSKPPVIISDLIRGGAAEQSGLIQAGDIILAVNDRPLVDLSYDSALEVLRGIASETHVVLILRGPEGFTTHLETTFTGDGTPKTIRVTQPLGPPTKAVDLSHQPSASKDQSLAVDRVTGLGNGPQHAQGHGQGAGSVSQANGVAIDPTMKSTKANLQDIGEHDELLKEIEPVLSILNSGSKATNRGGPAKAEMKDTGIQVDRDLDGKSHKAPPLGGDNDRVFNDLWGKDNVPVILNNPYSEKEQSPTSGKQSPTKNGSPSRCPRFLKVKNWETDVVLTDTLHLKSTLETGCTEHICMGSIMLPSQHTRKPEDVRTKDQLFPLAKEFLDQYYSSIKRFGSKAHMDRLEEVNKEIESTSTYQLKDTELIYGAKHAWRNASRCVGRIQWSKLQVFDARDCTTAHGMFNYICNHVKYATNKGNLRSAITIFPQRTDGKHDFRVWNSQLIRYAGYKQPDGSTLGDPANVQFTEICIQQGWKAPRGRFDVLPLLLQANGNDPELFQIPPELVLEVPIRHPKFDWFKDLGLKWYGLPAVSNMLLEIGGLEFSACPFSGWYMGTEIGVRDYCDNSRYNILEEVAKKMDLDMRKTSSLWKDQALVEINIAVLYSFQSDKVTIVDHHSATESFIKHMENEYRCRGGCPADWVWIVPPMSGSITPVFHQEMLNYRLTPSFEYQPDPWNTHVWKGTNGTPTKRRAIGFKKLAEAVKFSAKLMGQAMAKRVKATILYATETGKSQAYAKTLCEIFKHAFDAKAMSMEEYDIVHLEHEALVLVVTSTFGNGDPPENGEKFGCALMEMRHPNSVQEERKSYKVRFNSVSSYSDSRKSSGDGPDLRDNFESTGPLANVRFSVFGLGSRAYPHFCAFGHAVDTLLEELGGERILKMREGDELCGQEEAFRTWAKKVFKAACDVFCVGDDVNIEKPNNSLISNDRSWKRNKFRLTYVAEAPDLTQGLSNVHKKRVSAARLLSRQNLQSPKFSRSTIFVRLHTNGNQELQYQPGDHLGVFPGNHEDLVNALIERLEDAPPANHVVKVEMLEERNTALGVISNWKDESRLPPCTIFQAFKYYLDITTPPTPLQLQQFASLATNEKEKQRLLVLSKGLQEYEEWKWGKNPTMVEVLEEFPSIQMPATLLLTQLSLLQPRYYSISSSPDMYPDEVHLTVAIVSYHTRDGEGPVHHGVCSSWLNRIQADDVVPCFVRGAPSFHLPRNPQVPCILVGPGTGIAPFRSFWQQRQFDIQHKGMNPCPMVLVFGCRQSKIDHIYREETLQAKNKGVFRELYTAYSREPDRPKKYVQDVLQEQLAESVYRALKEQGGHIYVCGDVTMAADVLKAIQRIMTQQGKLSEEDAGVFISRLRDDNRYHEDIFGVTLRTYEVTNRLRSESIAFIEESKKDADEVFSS

With `NC(=O)[C@@H]1C[C@@H](NC(=O)[C@@H](N)CCC/N=C(\N)N[N+](=O)[O-])CN1Cc1ccccc1`, the IC50 stood at 2.85 µM on Nitric oxide synthase 1, 87.5 µM in test [1] and 1100 µM on Nitric oxide synthase 3. The Ki at Nitric oxide synthase 1 is 0.328 µM; in test [1] it was 39.7 µM; on Nitric oxide synthase 3, 159 µM. Besides, the Ratio Ki worked out at 121 in test [2] and 485 in test [3].
For the molecule `NC(=O)[C@H]1NCC[C@@H]1NC(=O)[C@@H](N)CCC/N=C(\N)N[N+](=O)[O-]`, in test [1], the midpoint of inhibition, the IC50, lay at 12.7 µM and the Ki was 5.76 µM. At Nitric oxide synthase 3, the half-maximal inhibitory concentration (IC50) is 1380 µM and the Ki was determined as 200 µM.
Take `CN1C[C@H](NC(=O)[C@@H](N)CCC/N=C(\N)N[N+](=O)[O-])C[C@H]1C(N)=O`: the IC50 at Nitric oxide synthase 1 was determined as 73.5 µM; in test [1] it was 83.5 µM; at Nitric oxide synthase 3, 1690 µM. Moreover, the Ki on Nitric oxide synthase 1 turned out to be 8.46 µM; in test [1], 37.9 µM; at Nitric oxide synthase 3 it was 246 µM. Moreover, the Ratio Ki in test [2] was 4.5; in test [3], 29.

As usually defined, the IC50 is the concentration that inhibits the measured activity by half. Read a low IC50 as higher potency. Broadly, the Ki is the equilibrium dissociation constant of an inhibitor or competing ligand from its target.

(Values after ChEMBL document CHEMBL1137380, “Conformationally restricted dipeptide amides as potent and selective neuronal nitric oxide synthase inhibitors” (J Med Chem, 2006).)
